Test results: ChEMBL document CHEMBL1201862, “PubChem BioAssay data set” (2004)
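Values below derive from 48-hour exposures of cells grown in 96-well plates, with endpoints linearly interpolated between the two concentrations bracketing the appropriate inhibition level. At the GI50, growth is halved.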 Activity calls are given as the source filed them. No stated cut-off is given here; in the data, active = GI50 up to about 1.1 µM and inactive = higher.

Assays:
Experiment in all cases: DTP human tumour cell line panel, 48 h
SF-268 = system: SF-268
EKVX = system: EKVX
OVCAR-4 = system: OVCAR-4
DU-145 = system: DU-145
MCF7 = system: MCF7
CCRF-CEM = system: CCRF-CEM
NCI/ADR-RES = system: NCI/ADR-RES
MDA-N = system: MDA-N
MOLT-4 = system: MOLT-4
M14 = system: M14
HCT-116 = system: HCT-116
SNB-75 = system: SNB-75
MDA-MB-231 = system: MDA-MB-231
SK-OV-3 = system: SK-OV-3
MDA-MB-435 = system: MDA-MB-435
NCI-H522 = system: NCI-H522
U-251 = system: U-251
OVCAR-8 = system: OVCAR-8
786-0 = system: 786-0
K562 = system: K562
UO-31 = system: UO-31
SF-295 = system: SF-295
NCI-H460 = system: NCI-H460
UACC-257 = system: UACC-257
SK-MEL-28 = system: SK-MEL-28
ACHN = system: ACHN
SNB-19 = system: SNB-19
OVCAR-3 = system: OVCAR-3
RPMI-8226 = system: RPMI-8226
NCI-H23 = system: NCI-H23
COLO 205 = system: COLO 205
HL-60 = system: HL-60
HT-29 = system: HT-29
PC-3 = system: PC-3
T47D = system: T47D
HCC 2998 = system: HCC 2998
SN12C = system: SN12C
RXF 393 = system: RXF 393
BT-549 = system: BT-549
HCT-15 = system: HCT-15
Hs-578T = system: Hs-578T
SR = system: SR
UACC-62 = system: UACC-62
TK-10 = system: TK-10
NCI-H226 = system: NCI-H226
SF-539 = system: SF-539
SW-620 = system: SW-620
KM12 = system: KM12
CAKI-1 = system: CAKI-1
IGROV-1 = system: IGROV-1
A549 = system: A549
SK-MEL-5 = system: SK-MEL-5
HOP-62 = system: HOP-62
Malme-3M = system: Malme-3M
LOX IMVI = system: LOX IMVI
OVCAR-5 = system: OVCAR-5
SK-MEL-2 = system: SK-MEL-2
HOP-92 = system: HOP-92

## CN(/N=C/c1cccs1)c1ccc(Cl)cc1[N+](=O)[O-]
SF-268
  GI50: 83.4 µM (inactive)
EKVX
  GI50: 32.7 µM (inactive)
OVCAR-4
  GI50: 59.3 µM (inactive)
DU-145
  GI50: 64.4 µM (inactive)
MCF7
  GI50: 18 µM (inactive)
CCRF-CEM
  GI50: 19.1 µM (inactive)
NCI/ADR-RES
  GI50: 18.9 µM (inactive)
MDA-N
  GI50: 3.84 µM (inactive)
MOLT-4
  GI50: 17.1 µM (inactive)
M14
  GI50: 34.2 µM (inactive)
HCT-116
  GI50: 26.2 µM (inactive)
SNB-75
  GI50: 30.8 µM (inactive)
MDA-MB-231
  GI50: 14.2 µM (inactive)
SK-OV-3
  GI50: 40.8 µM (inactive)
MDA-MB-435
  GI50: 5.57 µM (inactive)
NCI-H522
  GI50: 22.6 µM (inactive)
U-251
  GI50: 13.7 µM (inactive)
OVCAR-8
  GI50: 40.5 µM (inactive)
786-0
  GI50: 59.6 µM (inactive)
K562
  GI50: 5.78 µM (inactive)
UO-31
  GI50: 36.9 µM (inactive)
SF-295
  GI50: 37.7 µM (inactive)
NCI-H460
  GI50: 23.3 µM (inactive)
UACC-257
  GI50: 35.6 µM (inactive)
SK-MEL-28
  GI50: 78.5 µM (inactive)
ACHN
  GI50: 40 µM (inactive)
SNB-19
  GI50: 56.2 µM (inactive)
OVCAR-3
  GI50: 39.8 µM (inactive)
RPMI-8226
  GI50: 22 µM (inactive)
NCI-H23
  GI50: 35.3 µM (inactive)
COLO 205
  GI50: > 10 µM (inactive)
HL-60
  GI50: 6.75 µM (inactive)
HT-29
  GI50: 25.9 µM (inactive)
PC-3
  GI50: 38.4 µM (inactive)
T47D
  GI50: 41.6 µM (inactive)
HCC 2998
  GI50: 25.8 µM (inactive)
SN12C
  GI50: 24.5 µM (inactive)
RXF 393
  GI50: 23.6 µM (inactive)
BT-549
  GI50: 40.6 µM (inactive)
HCT-15
  GI50: 10.6 µM
Hs-578T
  GI50: 25.4 µM (inactive)
SR
  GI50: 5.71 µM (inactive)
UACC-62
  GI50: 47 µM (inactive)
TK-10
  GI50: 35.2 µM (inactive)
NCI-H226
  GI50: 19.8 µM (inactive)
SF-539
  GI50: 25 µM (inactive)
SW-620
  GI50: 12.3 µM (inactive)
KM12
  GI50: 11.4 µM (inactive)
CAKI-1
  GI50: 63.1 µM (inactive)
IGROV-1
  GI50: > 100 µM (inactive)
A549
  GI50: 30.3 µM (inactive)
SK-MEL-5
  GI50: 36.9 µM (inactive)
HOP-62
  GI50: 40.9 µM (inactive)

## CCOC(=O)c1c(-c2ccc(Cl)cc2)c(C#N)c(=S)n(C2OC(CO)C(O)C(O)C2O)c1-c1ccccc1 (stereo not drawn)
SF-268
  GI50: 28.1 µM (inactive)
OVCAR-4
  GI50: 33.5 µM (inactive)
DU-145
  GI50: 27.2 µM (inactive)
MCF7
  GI50: 22.3 µM (inactive)
CCRF-CEM
  GI50: 18.1 µM (inactive)
NCI/ADR-RES
  GI50: 46.9 µM (inactive)
MDA-N
  GI50: 23 µM (inactive)
MOLT-4
  GI50: 13.5 µM (inactive)
M14
  GI50: 19.7 µM (inactive)
HCT-116
  GI50: 18.7 µM (inactive)
SNB-75
  GI50: 27.9 µM (inactive)
MDA-MB-231
  GI50: 31.2 µM (inactive)
SK-OV-3
  GI50: 28.3 µM (inactive)
MDA-MB-435
  GI50: 21.3 µM (inactive)
Malme-3M
  GI50: 40.8 µM (inactive)
U-251
  GI50: 17 µM (inactive)
786-0
  GI50: 26.7 µM (inactive)
K562
  GI50: 19.5 µM (inactive)
UO-31
  GI50: 38 µM (inactive)
SF-295
  GI50: 20.4 µM (inactive)
NCI-H460
  GI50: 26.9 µM (inactive)
UACC-257
  GI50: 27.5 µM (inactive)
SK-MEL-28
  GI50: 17.3 µM (inactive)
ACHN
  GI50: 35.6 µM (inactive)
SNB-19
  GI50: 22.8 µM (inactive)
OVCAR-3
  GI50: 21.3 µM (inactive)
LOX IMVI
  GI50: 14.6 µM (inactive)
RPMI-8226
  GI50: 34.7 µM (inactive)
OVCAR-5
  GI50: 21.8 µM (inactive)
NCI-H23
  GI50: 30.3 µM (inactive)
COLO 205
  GI50: 30.1 µM (inactive)
HL-60
  GI50: > 10 µM (inactive)
HT-29
  GI50: 17.9 µM (inactive)
PC-3
  GI50: 19.9 µM (inactive)
T47D
  GI50: 23.2 µM (inactive)
HCC 2998
  GI50: 28.9 µM (inactive)
SN12C
  GI50: 38.4 µM (inactive)
SK-MEL-2
  GI50: 24.1 µM (inactive)
RXF 393
  GI50: 23 µM (inactive)
BT-549
  GI50: 29.4 µM (inactive)
HCT-15
  GI50: 29.9 µM
HOP-92
  GI50: 18.9 µM (inactive)
Hs-578T
  GI50: 24.2 µM (inactive)
SR
  GI50: 33.1 µM (inactive)
UACC-62
  GI50: 18.7 µM (inactive)
TK-10
  GI50: 33.8 µM (inactive)
SF-539
  GI50: 19.5 µM (inactive)
SW-620
  GI50: 18.5 µM (inactive)
KM12
  GI50: 34.5 µM (inactive)
CAKI-1
  GI50: 29.8 µM (inactive)
IGROV-1
  GI50: 33.7 µM (inactive)
A549
  GI50: 34.2 µM (inactive)
SK-MEL-5
  GI50: 15.6 µM (inactive)
HOP-62
  GI50: 20.3 µM (inactive)

## Clc1ccc(C(c2ccc(Cl)cc2)c2cncnc2)cc1
SF-268
  GI50: 17.8 µM (inactive)
EKVX
  GI50: > 10 µM (inactive)
OVCAR-4
  GI50: 15.2 µM (inactive)
DU-145
  GI50: 17.5 µM (inactive)
MCF7
  GI50: 15.3 µM (inactive)
CCRF-CEM
  GI50: 17.5 µM (inactive)
NCI/ADR-RES
  GI50: 18.7 µM (inactive)
MDA-N
  GI50: 14.2 µM (inactive)
MOLT-4
  GI50: 20.6 µM (inactive)
M14
  GI50: 16.4 µM (inactive)
HCT-116
  GI50: 13.9 µM (inactive)
MDA-MB-231
  GI50: 17.7 µM (inactive)
SK-OV-3
  GI50: 16 µM (inactive)
MDA-MB-435
  GI50: 13.7 µM (inactive)
NCI-H522
  GI50: 17.2 µM (inactive)
Malme-3M
  GI50: 19.1 µM (inactive)
U-251
  GI50: 17.3 µM (inactive)
OVCAR-8
  GI50: 20.3 µM (inactive)
786-0
  GI50: 17.3 µM (inactive)
K562
  GI50: 21.9 µM (inactive)
UO-31
  GI50: 11.9 µM (inactive)
SF-295
  GI50: 17.9 µM (inactive)
NCI-H460
  GI50: 17.6 µM (inactive)
UACC-257
  GI50: 19.3 µM (inactive)
SK-MEL-28
  GI50: 18.5 µM (inactive)
ACHN
  GI50: 19.2 µM (inactive)
SNB-19
  GI50: 18.1 µM (inactive)
OVCAR-3
  GI50: 14.7 µM (inactive)
LOX IMVI
  GI50: 15.8 µM (inactive)
RPMI-8226
  GI50: 34.4 µM (inactive)
OVCAR-5
  GI50: 15.6 µM (inactive)
NCI-H23
  GI50: 15.9 µM (inactive)
COLO 205
  GI50: 17.1 µM (inactive)
HL-60
  GI50: 22.9 µM (inactive)
HT-29
  GI50: 15.1 µM (inactive)
PC-3
  GI50: 14.2 µM (inactive)
T47D
  GI50: 16.6 µM (inactive)
SN12C
  GI50: 18.4 µM (inactive)
RXF 393
  GI50: 12.6 µM (inactive)
BT-549
  GI50: 13.9 µM (inactive)
HCT-15
  GI50: 19.6 µM
Hs-578T
  GI50: 18.3 µM (inactive)
SR
  GI50: 31.8 µM (inactive)
UACC-62
  GI50: 15.2 µM (inactive)
TK-10
  GI50: 16.9 µM (inactive)
KM12
  GI50: 18.3 µM (inactive)
CAKI-1
  GI50: 18.6 µM (inactive)
IGROV-1
  GI50: 16 µM (inactive)
A549
  GI50: 20.5 µM (inactive)
SK-MEL-5
  GI50: 13.2 µM (inactive)
HOP-62
  GI50: 17.2 µM (inactive)
